# According to patent US20130089907A1, “HYDROGEN PRODUCTION METHOD USING ALCOHOL AND PHOTOSYNTHETIC BACTERIA” (priority 2010, published 2013):
# Several values for one entry are separate records, joined by “and”; a condition that tells them apart may be missing. Identical values can stand only once. Like-named read-outs stand apart in the source and are kept apart here.
# Key:
# [1] = tested on: R. sphaeroides; assay: Hydrogen production by R. sphaeroides under photosynthetic condition in the presence of alcohol (GC of gas phase); type: cell-based, Rhodobacter sphaeroides; settings: for efficiency of hydrogen production: 10 Watts/m^2, 30° C., anaerobic
# Description: For the hydrogen production, R. sphaeroides 2.4.1(ATCC BAA-808, Cohen-Bazire et al. 1956. J. Cell. Comp. Physiol. 49: 25-68) or R. sphaeroides KCTC 12085 were used. To grow the cells, basically Sistrom minimal medium [20 mM KH2PO4, 3.8 mM (NH4)2SO4, 34 mM succinate, 0.59 mM L-glutamate, 0.30 mM L-aspartate, 8.5 mM NaCl, 1.05 mM nitrilotriacetic acid, 1.2 mM MgCl26H2O, 0.23 mM CaCl27H2O, 25 µM FeSO47H2O, 0.16 M (NH4)6Mo7O244H2O, 4.7 M EDTA, 38 M ZnSO47H2O, 9.1 M MnSO4H2O, 1.6 M CuSO45H2O, 0.85 M Co(NO3)26H2O (II), 1.8 M H3BO3, 8.1 M Nicotinic acid, 1.5 M Thiamine HCl, 41 nM biotin (Sistrom, W. R, 1962. J. Gen. Microbiol. 28: 607-616)] were used with the following modifications. To optimize the activity of nitrogenase, Ammonium molybdate was replaced with the same amount of Sodium molybdate, or 7 mM of L-glutamate was used instead of ammonium sulfate, or succinate was replaced with 30 mM malate. To investigate the effect of ammonium, 2 mM Ammonium chloride was added.
# R. sphaeroides was inoculated at the concentration of 10^8 CFU/ml in 10 ml of Sistrom minimal medium and incubated for 120 hrs. to test the hydrogen production at the following condition: 10 Watts/m^2, 30° C., anaerobic. To measure the hydrogen produced, the cells were incubated in a serum vial which was air tight. Before use the air in the vial was replaced with argon gas to remove oxygen. During the reaction, an aliquot of gas in the gas phase was sampled from the vial using the gas-tight syringe, which was further analyzed by a Gas Chromatography (GC, Shimadzu, Japan).
# (§1) Each strain was inoculated to the medium as described above at 10^8 CFU/ml and incubated for 120 hours under the following condition: 10 Watts/m^2 of light, 30° C., and anaerobic condition and the amount of hydrogen produced was tested. The ethanol was added at 0.2 vol % and the cell growth, and hydrogen production and analysis were performed as described in Example 1.
# To determine the optimal concentration and time of the alcohol added, the accumulated amount of hydrogen produced was measured in R. sphaeroides in the presence of varying amounts of ethanol from 0.01 vol % to 2 vol % (volume/volume %) by incubating them under the same condition as described in Example 1.
# In addition to ethanol, other alcohols, that is, methanol (CH3OH), propanol (CH3CH2CH2OH), isopropanol [(CH3)2CHOH], butanol [CH3(CH2)2CH2OH], isoamyl alcohol, [(CH3)2CHCH2CH2OH] were tested. Under the same condition as used in Example 1, each alcohol was added to the cells at the concentration of 0.1%, 0.2%, 0.5%, or 1.0%.
# [2] = tested on: R. sphaeroides
# Description: The wild type R. sphaeroides cells were grown under 10 Watts/m^2 of light as described in Example 1 and tested for the production of hydrogen.
# The hydrogen produced was analyzed as described in Example 1.
# [3] = tested on: nitrogenase
# Description: The activity of nitrogenase was measured by the rate of ethylene (C2H4) produced using the acetylene (C2H2) as a substrate. The nitrogenase has an ability to produce hydrogen and ethylene by reducing proton (H+) and acetylene in addition to using N2 as substrate (Kern et al. 1992. Appl. Microbiol. Biotechnol. 37: 496-500). The activity of the nitrogenase was measured by incubating R. sphaeroides under the photosynthetic condition of 10 Watts/m^2 of light. 10 ml of the bacteria (10^8 CFU/ml) was placed in a serum vial (65 ml) and incubated under the light until the KU (Klett Unit) reached 150 to 200. To prevent the de novo protein synthesis during the incubation period, chloramphenicol was used at 50 μg/ml and the air in the vial was replaced with argon before use. Acetylene was injected into the vial to occupy 10% of the entire air phase using a gas-tight syringe. The cells were first incubated for 10 min without light and the reaction started under the 10 Watts/m^2 light. The amount of ethylene produced was measured by withdrawing an aliquot of the gas in the gas phase using a gas-tight syringe and by subject them to GC analysis.
# [4] = tested on: Rhodobacter capsulatus SB1003; settings: R. capsulatus; ethanol 0.2 vol %; modified Sistrom medium depleted with ammonium ion; 120 hours
# Description: Rhodobacter capsulatus SB1003 and Rhodospirillum rubrum UR1 selected for the experiment due to their well characterization. For the growth of R. capsulatus, a modified Sistrom medium depleted with ammonium ion was used; and for the growth of R. rubrum, MG minimal medium was used as described in Lehman and Roberts. 1991. J. Bacteriol. 173: 5705-5711.
# as §1
# [5] = concentration not stated (tested at 0.1%, 0.2%, 0.5%, or 1.0%)
compound,measurement,setting,value
CC(C)CCO [isoamyl alcohol],hydrogen production,[1]; [5],decrease the hydrogen production
butanol,concentration with the highest effect on hydrogen production,[1],0.2%
same,hydrogen production,[1],increased
CC(C)O [isopropanol],increase of hydrogen production,[1]; [5],about 35%
"CO [Methanol, methanol]",hydrogen production,"[1]; alcohol at 0.1%, 0.2%, and 0.5%",increased
same,cell growth,[1]; alcohol at 1.0%,inhibit the cell growth
same,concentration with the highest effect on hydrogen production,"[1]; tested at 0.1%, 0.2%, 0.5%, or 1.0%",0.2%
CCCO [propanol],concentration with the highest effect on hydrogen production,[1],0.5%
same,hydrogen production,[1],increased
CCO [ethanol],growth of cells,[1]; 2% ethanol,inhibited the growth
same,hydrogen produced,[1]; 2% ethanol,very much decreased
same,fold increase (hydrogen produced in the presence of alcohol/in the absence of alcohol),"[1]; R. sphaeroides, ethanol 0.2 vol %, 120 hours",2.21 fold
same,growth of bacteria,"[1]; ethanol 0.1 vol % and 0.5 vol %, Sistrom medium containing ammonium ion",not affected
same,"hydrogen production, times higher than the control",[1]; ethanol 0.1 vol % or 0.5 vol % vs control without ethanol,10 times
same,efficiency of hydrogen production,"[1]; ethanol 0.1 vol %, Sistrom medium containing ammonium ion",5.04 mole H2/mole succinate
same,effect on hydrogen production by time of addition,"[1]; ethanol 0.5 vol % added with inoculation (10 KU) or at 100 KU compared to addition at 300 KU, FIG. 5",higher increasing effect on the hydrogen production
same,efficiency of hydrogen production,"[1]; ethanol 0.5 vol %, Sistrom medium containing ammonium ion",5.72 mole H2/mole succinate
same,"accumulated hydrogen production, wild type strain","[1]; ethanol 0.5 vol %, Sistrom medium containing ammonium ion, FIG. 3",increased hydrogen production
same,hydrogen production,[1]; ethanol less than 0.05%,not shown to increase
same,hydrogen gas producing ability remained in 2 mM ammonium ion compared to 0 mM ammonium ion,"[2]; 0.2% ethanol, modified medium, FIG. 4",not less than 80%
same,nitrogenase activity remained in the presence of ammonium ion,[2]; after the addition of ethanol,more than 80%
same,"activity of nitrogenase, times higher than the control",[3]; 0.2 vol % ethanol vs control without ethanol,4 times
same,activity of nitrogenase,"[3]; 0.2 vol % of EtOH, 10 Watts/m^2 light",18.2 nmole KU^−1 h^−1
same,fold increase (hydrogen produced in the presence of alcohol/in the absence of alcohol),[4],1.5 fold and 1.53 fold
